From patent publication EP0506565A1, “Use of 4,9,11-trienic steroids in compositions for turkeys” (ROUSSEL-UCLAF, priority 1991, dated 1992)

Assays:
[1] = Biological test: trenbolone acetate given orally in the feed, weight gain and feed conversion index; assay type: in vivo, dinde femelle; parameters: GPM = Gain de poids cumulé: unit not given here
Description: L'essai a été effectué sur des dindes femelles âgées de 10 semaines.
Les animaux sont répartis en 2 groupes : • un groupe témoin de 37 animaux, • un groupe de 37 animaux recevant de l'acétate de trenbolone dans leur nourriture.
Les dindes reçoivent une quantité rationnée de nourriture renfermant l'acétate de trenbolone puis sont nourries ad libitum.
On calcule le poids moyen des dindes par pesée individuelle chaque semaine. On calcule le gain de poids moyen et l'indice de consommation c'est-à-dire (le poids total de nourriture que l'animal a reçu)/(gain de poids total) [formula]
Les résultats sont résumés dans le tableau ci-dessus, ainsi que dans les courbes jointes en annexe. • Courbe 1 : évolution pondérale des dindes femelles de 9 à 19 semaines. • Courbe 2 : évolution de la différence entre les indices de consommation cumulés témoins-traités. • Courbe 3 : évolution de la différence entre les gains de poids moyens des animaux traités par rapport aux animaux témoins.

[2] = administré par voie orale chez divers animaux notamment les bovins; cited from earlier work
[3] = Plasma residues of TBA in orally treated turkeys; assay type: in vivo, dinde; conditions: à 10, 12, 14, 16 et 18 semaines; oral administration
[4] = Observation of locomotor behaviour of treated turkeys; assay type: in vivo, dinde; conditions: oral administration
[5] = Course of plasma transaminase levels in orally treated turkeys; assay type: in vivo, dinde; conditions: oral administration, compared with controls
[6] = 11ème semaine, 0,7 mg/Jour/dinde per os
[7] = 12ème semaine, 0,7 mg/Jour/dinde per os
[8] = 13ème semaine, 0,7 mg/Jour/dinde per os
[9] = 14ème semaine, 0,7 mg/Jour/dinde per os
[10] = 15ème semaine, 0,7 mg/Jour/dinde per os
[11] = 16ème semaine, 0,7 mg/Jour/dinde per os
[12] = 17ème semaine, 1,4 mg /jour/dinde per os
[13] = 18ème semaine, 1,4 mg /jour/dinde per os
[14] = 19éme semaine, 1,4 mg /jour/dinde per os

SMILES: CC(=O)O[C@H]1CC[C@H]2[C@@H]3CCC4=CC(=O)CCC4=C3C=C[C@]12C [acétate de trenbolone]
- % variation = % de l'augmentation de GPM des traités par rapport aux témoins [1, 6]: 12%
- GPM = Gain de poids cumulé [1, 6]: 1606,1
- I.C. = indice de consommation [1, 6]: 2,05
- PM = poids moyen [1, 6]: 4967,6 grammes
- % variation = % de l'augmentation de GPM des traités par rapport aux témoins [1, 7]: 18%
- GPM = Gain de poids cumulé [1, 7]: 2303,7
- I.C. = indice de consommation [1, 7]: 2,05
- PM = poids moyen [1, 7]: 5665,2 grammes
- % variation = % de l'augmentation de GPM des traités par rapport aux témoins [1, 8]: 12%
- GPM = Gain de poids cumulé [1, 8]: 2907,2
- I.C. = indice de consommation [1, 8]: 2,54
- PM = poids moyen [1, 8]: 6268,7 grammes
- % variation = % de l'augmentation de GPM des traités par rapport aux témoins [1, 9]: 10%
- GPM = Gain de poids cumulé [1, 9]: 3839,4
- I.C. = indice de consommation [1, 9]: 2,66
- PM = poids moyen [1, 9]: 7200,9 grammes
- % variation = % de l'augmentation de GPM des traités par rapport aux témoins [1, 10]: 7%
- GPM = Gain de poids cumulé [1, 10]: 4463,6
- I.C. = indice de consommation [1, 10]: 2,66
- PM = poids moyen [1, 10]: 7825,1 grammes
- % variation = % de l'augmentation de GPM des traités par rapport aux témoins [1, 11]: 8%
- GPM = Gain de poids cumulé [1, 11]: 5258
- I.C. = indice de consommation [1, 11]: 3,1
- PM = poids moyen [1, 11]: 8619,6 grammes
- % variation = % de l'augmentation de GPM des traités par rapport aux témoins [1, 12]: 9%
- GPM = Gain de poids cumulé [1, 12]: 6008,1
- I.C. = indice de consommation [1, 12]: 3,33
- PM = poids moyen [1, 12]: 9369,7 grammes
- % variation = % de l'augmentation de GPM des traités par rapport aux témoins [1, 13]: 11%
- GPM = Gain de poids cumulé [1, 13]: 6651,2
- I.C. = indice de consommation [1, 13]: 3,45
- PM = poids moyen [1, 13]: 10012,8 grammes
- % variation = % de l'augmentation de GPM des traités par rapport aux témoins [1, 14]: 11%
- GPM = Gain de poids cumulé [1, 14]: 7197,8
- I.C. = indice de consommation [1, 14]: 3,59
- PM = poids moyen [1, 14]: 10559,4 grammes
- activité [2]: relativement faible
- résidus plasmatiques de TBA [3]: inférieurs à la limite de dosage
- comportement locomoteur [4]: aucune anomalie
- évolution du taux des transaminases plasmatiques (GOT et GPT) [5]: n'est pas modifiée par rapport aux témoins
